Results on 4 compounds are retold here after patent publication US5087634A, “N-substituted imidazol-2-one compounds for treatment of circulatory disorders” (G. D. Searle & Co., priority 1990, dated 1992).

For orientation: IC50 means the concentration needed to halve the response being measured.

One test deals with angiotensin II. The conditions noted are these: binding experiments, functional assays and in vivo tests; cited from earlier work.
Test [1] relates to angiotensin II pressor response. Put plainly: In Vivo Intragastric Pressor Assay Response for AII Antagonists. The settings on record: dose 10 (units not given), gavage, listed as EX. #1. Further details: species or system rat (male Sprague-Dawley). The method, then:
Male Sprague-Dawley rats weighing 225-300 grams were anesthetized with methohexital (30 mg/kg, i.p.) and catheters were implanted into the femoral artery and vein. The catheters were tunneled subcutaneously to exit dorsally, posterior to the head and between the scapulae. The catheters were filled with heparin (1000 units/ml of saline). The rats were returned to their cage and allowed regular rat chow and water ad libitum. After full recovery from surgery (3-4 days), rats were placed in Lucite holders and the arterial line was connected to a pressure transducer. Arterial pressure was recorded on a Gould polygraph (mmHg). […] After allowing one hour for pressure to stabilize, the test compound (suspended in 0.5% methylcellulose in water) was administered by gavage. The volume administered was 2 ml/kg body weight. Arterial pressure was monitored for 5 hours post-dosing. The angiotensin II infusion was then discontinued and pressure was allowed to reach a stable recovery level. Percent inhibition (%I) of the angiotensin II pressor response was calculated from the difference in pressure at a given timepoint post-dosing with the test compound and the antiotensin II-infused pressure, divided by the difference in pressure with and without the angiotensin II infusion; this value was multiplied by 100. Duration of action of a test compound was defined as the time taken for pressure to return to angiotensin II-infused baseline levels after compound administration. One compound at one dose was tested in each rat. The compound of Example I was tested in two rats.

The target of another test is T1, rabbit aortic rings (Oryctolagus cuniculus, UniProt P34976).
T1 construct: The thoracic aorta was removed, cleaned of adherent fat and connective tissue and then cut into 3-mm ring segments; from tissue; host or cells: thoracic aorta rings of male New Zealand white rabbits, endothelium removed
T1 sequence (P34976 1-359): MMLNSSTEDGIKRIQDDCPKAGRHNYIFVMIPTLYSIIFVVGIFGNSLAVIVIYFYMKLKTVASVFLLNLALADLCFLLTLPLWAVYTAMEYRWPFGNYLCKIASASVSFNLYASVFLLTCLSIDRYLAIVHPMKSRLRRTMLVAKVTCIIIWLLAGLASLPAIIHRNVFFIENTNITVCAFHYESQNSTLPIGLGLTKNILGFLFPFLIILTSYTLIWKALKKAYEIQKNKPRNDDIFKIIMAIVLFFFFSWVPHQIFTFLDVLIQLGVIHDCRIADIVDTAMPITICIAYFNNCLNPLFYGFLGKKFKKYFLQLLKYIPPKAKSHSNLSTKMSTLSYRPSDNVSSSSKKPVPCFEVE
Put plainly: In Vitro Vascular Smooth Muscle-Response for AII (rabbit aortic rings). Further details: species or system rabbit (male New Zealand white). The conditions noted are these: antagonist 10^-5 M for 5 minutes before AII; rabbit aorta rings, 37° C.; read-out: pA2 value (converted). The method, then:
The compounds of the invention were tested for antagonist activity in rabbit aortic rings. Male New Zealand white rabbits (2-2.5 kg) were sacrificed using an overdose of pentobarbital and exsanguinated via the carotid arteries. The thoracic aorta was removed, cleaned of adherent fat and connective tissue and then cut into 3-mm ring segments. The endothelium was removed from the rings by gently sliding a rolled-up piece of filter paper into the vessel lumen. The rings were then mounted in a water-jacketed tissue bath, maintained at 37° C., between moveable and fixed ends of a stainless steel wire with the moveable end attached to an FT03 Grass transducer coupled to a Model 7D Grass Polygraph for recording isometric force responses. The bath was filled with 20 ml of oxygenated (95% oxygen/5% carbon dioxide) Krebs solution of the following composition (mM): 130 NaCl, 15 NaHCO3, 15 KCl, 1.2 NaH2 P04, 1.2 MgSO4, 2.5 CaCl2, and 11.4 glucose. The preparations were equilibrated for one hour before approximately one gram of passive tension was placed on the rings. Angiotensin II concentration-response curves were then recorded (3×10^-10 to 1×10^-5 M). […] The effectiveness of the test compound was expressed in terms of pA2 values and were calculated according to H. O. Schild [Br. J. Pharmacol. Chemother., 2, 189-206 (1947)]. […] Each test antagonist was evaluated in aorta rings from two, rabbits.

Test [2] deals with smooth muscle angiotensin II receptor. Briefly: Angiotensin II Binding Activity (displacement of 125I-AII from rat uterine membranes). The settings on record: 25° C., 60 min, read-out: IC50 (50% displacement of the total specifically bound 125I-AII). As to the method:
Compounds of the invention were tested for ability to bind to the smooth muscle angiotensin II receptor using a rat uterine membrane preparation. Angiotensin II (AII) was purchased from Peninsula Labs. 125I-angiotensin II (specific activity of 2200 Ci/mmol) was purchased from Du Pont-New England Nuclear. Other chemicals were obtained from Sigma Chemical Co. This assay was carried out according to the method of Douglas et al [Endocrinoloby, 106, 120-124 (1980)]. Rat uterine membranes were prepared from fresh tissue. All procedures were carried out at 4° C. Uteri were stripped of fat and homogenized in phosphate-buffered saline at pH 7.4 containing 5 mM EDTA. The homogenate was centrifuged at 1500× g for 20 min., and the supernatant was recentrifuged at 100,000× g for 60 min. The pellet was resuspended in buffer consisting of 2 mM EDTA and 50 mM Tris-HCl (pH 7.5) to a final protein concentration of 4 mg/ml. Assay tubes were charged with 0.25 ml of a solution containing 5 mM MgCl2, 2 mM EDTA, 0.5% bovine serum albumin, 50 mM Tris-HCl, pH 7.5 and ^125 I-AJI (approximately 10^5 cpm) in the absence or in the presence of unlabelled ligand. […] Filters were assayed for radioactivity in a Micromedic gamma counter. […] Specific binding was calculated as total binding minus nonspecific binding. […] Binding data were analyzed by a nonlinear least-squares curve fitting program.
Background: Loss of bound radioactivity is the signal in a displacement assay; it reports binding, not function.

Another test concerns angiotensin II receptors. The settings on record: cited from earlier work.

Where “and” joins values, the source holds several entries; their conditions need not be identical. Equal entries are not always repeated.

For `CCCCc1nc(Cl)c(CC(=O)O)n1Cc1ccccc1[N+](=O)[O-]` [2-butyl-4-choloro-l-(2-nitrobenzyl)imidazole-5-acetic acid], the “angiotensin II antagonist activity” value with angiotensin II is given as “specific competitive angiotensin II antagonist activity”.
On to `CCCCc1nc(Cl)c(CC(=O)O)n1Cc1ccccc1Cl` [2-n-butyl-4-chloro-l-(2-chlorobenzyl)imidazole-5-acetic acid], for which, in the test with angiotensin II, the “angiotensin II antagonist activity” value is “specific competitive angiotensin II antagonist activity”.
`CCCCc1cn(CCCC)c(=O)n1Cc1ccc(-c2ccccc2-c2nnn[nH]2)cc1` [Example 1, 1,4-dibutyl-1,3-dihydro-3-[2'-(1H-tetrazol-5-yl)[1,1'biphenyl]-4-ylmethyl]-2H-imidazol-2-one]: the “mean arterial pressure after administration, time 10” value in test [1] (time 10, AII infusion 50 ng/kg/min, two rats (baseline/after AII 116/168 and 126/175 mmHg)) was 165 mmHg and 166 mmHg. Moreover, the “mean arterial pressure after administration, time 20” value in test [1] (time 20, AII-infused rats) is 163 mmHg and 155 mmHg. In test [1] (time 30, AII-infused rats), the “mean arterial pressure after administration, time 30” value was 159 mmHg and 147 mmHg. Besides, in test [1] (time 40, AII-infused rats), the “% inhibition (% I) of the AII pressor response, time 40” value was 41% and 58%; the “mean arterial pressure after administration, time 40” value was 146 mmHg and 147 mmHg. Also, in test [1] (time 50, AII-infused rats), the “% inhibition (% I) of the AII pressor response, time 50” value was 45% and 89%; the “mean arterial pressure after administration, time 50” value is 144 mmHg and 132 mmHg. Besides, in test [1] (time 60, AII-infused rats), the “% inhibition (% I) of the AII pressor response, time 60” value is 54% and 88%; the “mean arterial pressure after administration, time 60” value is 140 mmHg and 132 mmHg. Further, in test [1] (time 90, AII-infused rats), the “% inhibition (% I) of the AII pressor response, time 90” value is 86% and 96%; the “mean arterial pressure after administration, time 90” value is 123 mmHg and 128 mmHg. For the same compound, in test [1] (time 120, AII-infused rats), the “% inhibition (% I) of the AII pressor response, time 120” value was 85% and 103%; the “mean arterial pressure after administration, time 120” value was 124 mmHg and 125 mmHg. For the same compound, in test [1] (time 150, AII-infused rats), the “% inhibition (% I) of the AII pressor response, time 150” value is 93% and 97%; the “mean arterial pressure after administration, time 150” value is 119 mmHg and 128 mmHg. Also, in test [1] (time 180, AII-infused rats), the “% inhibition (% I) of the AII pressor response, time 180” value was 96% and 97%; the “mean arterial pressure after administration, time 180” value was 117 mmHg and 127 mmHg. In test [1] (time 210, AII-infused rats), the “% inhibition (% I) of the AII pressor response, time 210” value is 106% and 98%; the “mean arterial pressure after administration, time 210” value was 113 mmHg and 127 mmHg. Also, in test [1] (time 240, AII-infused rats), the “% inhibition (% I) of the AII pressor response, time 240” value was 102% and 89%; the “mean arterial pressure after administration, time 240” value was 115 mmHg and 131 mmHg. For the same compound, in test [1] (time 270, AII-infused rats), the “% inhibition (% I) of the AII pressor response, time 270” value was 96% and 92%; the “mean arterial pressure after administration, time 270” value is 117 mmHg and 130 mmHg. Further, in test [1] (time 300, AII-infused rats), the “% inhibition (% I) of the AII pressor response, time 300” value was 97% and 87%; the “mean arterial pressure after administration, time 300” value is 117 mmHg and 133 mmHg. For the same compound, the Kb on rabbit aortic rings was 2.51 nM. Further, in test [2], the 50% inhibitory concentration (IC50) is 6.4 nM.
Consider `CNCC(=O)N[C@@H](CCCN=C(N)N)C(=O)N[C@H](C(=O)N[C@@H](Cc1ccc(O)cc1)C(=O)N[C@H](C(=O)N[C@@H](Cc1cnc[nH]1)C(=O)N1CCC[C@H]1C(=O)N[C@@H](C)C(=O)O)C(C)C)C(C)C` [Saralasin], for which, in the test with angiotensin II receptors, the residual agonist activity result is given as “significant residual agonist activity”.
